Measured values: PubChem BioAssay AID1918944 (Molecular Pharmacology Branch, DTP, NCI, 2023)
“And” between values parts separate entries of the source, which are not always exact repeats. Equal entries are not always repeated.

Test system: 786-0 complex spheroid viability
Assay: Anticancer human tumor 786-0 cell line growth inhibition;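 also: spheroids exposed to agents for seven days before readout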
Settings: for viability, T/C: stronger effect = lower value
How it was run: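 Multicellular complex spheroids of tumor cells with human endothelial cells (HUVEC) and mesenchymal stem cells; the LSD1 inhibitor iadademstat was combined with standard-of-care or investigational agents. Top concentration at or near clinical Cmax, half-log dilutions; final DMSO ≤0.25%.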

[1] = curve of first compound, second compound 0.1 µM
[2] = curve of first compound, second compound 0.316 µM
[3] = curve of first compound, second compound 1 µM
[4] = curve of first compound, second compound 3.16 µM
[5] = curve of first compound, second compound 10 µM
[6] = second compound 0.1 µM, first compound 0.0316 µM
[7] = second compound 0.1 µM, first compound 0.1 µM
[8] = second compound 0.316 µM, first compound 0.0316 µM
[9] = second compound 0.316 µM, first compound 0.1 µM
[10] = second compound 1 µM, first compound 0.0316 µM
[11] = second compound 1 µM, first compound 0.1 µM
[12] = second compound 3.16 µM, first compound 0.0316 µM
[13] = second compound 3.16 µM, first compound 0.1 µM
[14] = second compound 10 µM, first compound 0.0316 µM
[15] = second compound 10 µM, first compound 0.1 µM

Work on `CC(C)CC(NC(=O)C(Cc1ccccc1)NC(=O)c1cnccn1)B(O)O` (centres undefined) + NC1CC1c1ccc(-c2cccc(O)c2)cc1 yielded an IC50 [1] of 3.71 nM, an IC50 [2] of 3.52 nM and an IC50 [3] of 3.41 nM. For the same molecule, the IC50 [4] was 3.23 nM, the IC50 [5] was 2.35 nM and the viability, T/C (second compound 0.1 µM, first compound 0.000316 µM) was 114%. It also gave a viability, T/C (second compound 0.1 µM, first compound 0.001 µM) of 110%, a viability, T/C (second compound 0.1 µM, first compound 0.00316 µM) of 55.5% and a viability, T/C (second compound 0.1 µM, first compound 0.01 µM) of 11.2%. For the same molecule, the viability, T/C [6] was 1.11%, the viability, T/C [7] was 0.47% and the viability, T/C (second compound 0.316 µM, first compound 0.000316 µM) was 114%. For the same molecule, the viability, T/C (second compound 0.316 µM, first compound 0.001 µM) was 111%, the viability, T/C (second compound 0.316 µM, first compound 0.00316 µM) was 53.5% and the viability, T/C (second compound 0.316 µM, first compound 0.01 µM) was 9.41%. The viability, T/C [8] was 1.04%, the viability, T/C [9] was 0.33% and the viability, T/C (second compound 1 µM, first compound 0.000316 µM) was 114%. For the same molecule, the viability, T/C (second compound 1 µM, first compound 0.001 µM) was 109%, the viability, T/C (second compound 1 µM, first compound 0.00316 µM) was 51.8% and the viability, T/C (second compound 1 µM, first compound 0.01 µM) was 10.7%. It also gave a viability, T/C [10] of 1.17%, a viability, T/C [11] of 0.5% and a viability, T/C (second compound 3.16 µM, first compound 0.000316 µM) of 105%. It also gave a viability, T/C (second compound 3.16 µM, first compound 0.001 µM) of 110%, a viability, T/C (second compound 3.16 µM, first compound 0.00316 µM) of 50.4% and a viability, T/C (second compound 3.16 µM, first compound 0.01 µM) of 9.96%. The viability, T/C [12] was 1.23%, the viability, T/C [13] was 0.53% and the viability, T/C (second compound 10 µM, first compound 0.000316 µM) was 102%. For the same molecule, the viability, T/C (second compound 10 µM, first compound 0.001 µM) was 99.6%, the viability, T/C (second compound 10 µM, first compound 0.00316 µM) was 32.9% and the viability, T/C (second compound 10 µM, first compound 0.01 µM) was 6.5%. For the same molecule, the viability, T/C [14] was 0.86% and the viability, T/C [15] was 0.34%.
In the case of `CC1COCCN1c1cc(C2(S(C)(=N)=O)CC2)nc(-c2ccnc3[nH]ccc23)n1` (centres undefined), the viability, T/C (compound 0.0316 µM) is reported as 101% and 103%, the viability, T/C (compound 0.1 µM) is reported as 99.8% and 99.9% and the viability, T/C (compound 0.316 µM) is reported as 91.4% and 99%. For the same molecule, the viability, T/C (compound 1 µM) was 46.4% and 56.3%, the viability, T/C (compound 3.16 µM) was 24.9% and 32.6% and the viability, T/C (compound 10 µM) was 12.3% and 18.9%. For the same molecule, the IC50 (curve of compound) was 954 nM and 1380 nM.
Work on `COc1ccc([C@@H](O)c2cc(-c3ncnc4cc(N5CCOCC5)ccc34)c(F)cc2Cl)nn1` + NC1CCC(NC2CC2c2ccccc2)CC1 yielded an IC50 [1] of 8630 nM, an IC50 [2] of 8980 nM and an IC50 [3] of 7650 nM. It also gave an IC50 [4] of 7270 nM, an IC50 [5] of 4560 nM and a viability, T/C [6] of 115%. For the same molecule, the viability, T/C [7] was 118%, the viability, T/C (second compound 0.1 µM, first compound 0.316 µM) was 119% and the viability, T/C (second compound 0.1 µM, first compound 1 µM) was 108%. For the same molecule, the viability, T/C (second compound 0.1 µM, first compound 3.16 µM) was 72.6%, the viability, T/C (second compound 0.1 µM, first compound 10 µM) was 46.7% and the viability, T/C [8] was 127%. It also gave a viability, T/C [9] of 123%, a viability, T/C (second compound 0.316 µM, first compound 0.316 µM) of 119% and a viability, T/C (second compound 0.316 µM, first compound 1 µM) of 110%. For the same molecule, the viability, T/C (second compound 0.316 µM, first compound 3.16 µM) was 72.7%, the viability, T/C (second compound 0.316 µM, first compound 10 µM) was 47.8% and the viability, T/C [10] was 115%. For the same molecule, the viability, T/C [11] was 116%, the viability, T/C (second compound 1 µM, first compound 0.316 µM) was 110% and the viability, T/C (second compound 1 µM, first compound 1 µM) was 104%. The viability, T/C (second compound 1 µM, first compound 3.16 µM) was 69.9%, the viability, T/C (second compound 1 µM, first compound 10 µM) was 44% and the viability, T/C [12] was 104%. It also gave a viability, T/C [13] of 116%, a viability, T/C (second compound 3.16 µM, first compound 0.316 µM) of 104% and a viability, T/C (second compound 3.16 µM, first compound 1 µM) of 95.8%. The viability, T/C (second compound 3.16 µM, first compound 3.16 µM) was 67.4%, the viability, T/C (second compound 3.16 µM, first compound 10 µM) was 43.4% and the viability, T/C [14] was 89.8%. It also gave a viability, T/C [15] of 81%, a viability, T/C (second compound 10 µM, first compound 0.316 µM) of 84.7% and a viability, T/C (second compound 10 µM, first compound 1 µM) of 81.6%. It also gave a viability, T/C (second compound 10 µM, first compound 3.16 µM) of 56.6% and a viability, T/C (second compound 10 µM, first compound 10 µM) of 35.8%.
In the case of `COc1cc(Nc2ncc3c(n2)-c2ccc(Cl)cc2C(c2c(F)cccc2OC)=NC3)ccc1C(=O)O`, the viability, T/C (compound 0.00316 µM) is reported as 109% and 97.4%, the viability, T/C (compound 0.01 µM) is reported as 90.9% and 98.9% and the viability, T/C (compound 0.0316 µM) is reported as 67.5% and 84.2%. For the same molecule, the viability, T/C (compound 0.1 µM) was 66.5% and 68.7%, the viability, T/C (compound 0.316 µM) was 54.4% and 56% and the viability, T/C (compound 1 µM) was 37.1% and 44.9%. The IC50 (curve of compound) was 329 nM and 565 nM.
